Experimental data published in patent publication US20020010182A1, “Piperazine derivatives as tachykinin antagonists” (FUJISAWA PHARMACEUTICAL CO., LTD., priority 1995, published 2002).
Where a name gives a salt, the structure may show the parent alone.

target: T1, h-NK1 receptors (Homo sapiens, UniProt P25103); experiment: Evaluation of NK1 antagonist transport efficiency to the central nervous system using a h-NK1 receptor binding assay; conditions: 5 min, brain extract of male SD rats 5 min after i.v. injection of test compound, CHO cell membranes expressing h-NK1, read-out: inhibition rate of 125I-BH-Substance P binding to h-NK1 receptors
T1 construct: expressed in transfected cells; host or cells: CHO cells (permanent expression), crude cell membranes
T1 sequence (P25103 whole entry): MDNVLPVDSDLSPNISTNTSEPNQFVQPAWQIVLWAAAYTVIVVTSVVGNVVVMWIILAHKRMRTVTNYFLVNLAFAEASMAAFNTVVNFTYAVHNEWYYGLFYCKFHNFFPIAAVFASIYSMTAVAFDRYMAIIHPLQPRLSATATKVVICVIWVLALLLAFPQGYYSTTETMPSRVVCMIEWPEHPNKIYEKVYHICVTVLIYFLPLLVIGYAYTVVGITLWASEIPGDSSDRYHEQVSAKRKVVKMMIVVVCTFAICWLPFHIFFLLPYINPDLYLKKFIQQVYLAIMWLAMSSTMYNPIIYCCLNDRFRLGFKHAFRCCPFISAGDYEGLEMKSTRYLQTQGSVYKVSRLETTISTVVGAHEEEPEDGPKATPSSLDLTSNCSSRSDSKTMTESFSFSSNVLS
Method: A. Evaluation of NK1 Antagonist Transport Efficiency to the Cental Nervous System Using a h-NK1 Receptor Binding Assay
(1) Administration of Test Compound and Extraction of the Compound From Brain
Male SD rats were given an i.v. injection of a solution containing a test compound (1 mg/kg). 5 Min later the animals were anesthetized by ether, bled and perfused through the aorta ascendens with 20 ml of saline. The brain was rapidly removed, weighed and homogenized in 4 vol. ice-cold distilled water by using Polytoron (KINEMATICA). To extract the test compound, 500 μl of the homogenate, 100 μl of methanol, 500 μl of 0.1 N NaOH and 4 ml of ethyl acetate were mixed by shaking for 10 min at room temperature. The organic phase (2.5 ml) was recovered by centrifugation at 3,000 rpm for 10 min, dried and dissolved in dimethyl sulfoxide.
(2) h-NK1 Receptor Binding Assay
(a) Crude CHO Cell Membrane Preparation
CHO cells permanently expressing h-NK1 receptors were harvested and homogenized with a Dounce homogenizer at 4° C. in a buffer (0.25 M sucrose, 25 mM Tris-HCl (pH 7.4), 10 mM MgCl2, 1 mM EDTA, 5 μg/ml p-APMSF). The homogenate was centrifuged (500×g, 10 min), and the pellet was resuspended in the same buffer, homogenized, and centrifuged. The two supernatants were combined and centrifuged (100,000×g, 1 hour). The crude cell membranes thus isolated were resuspended in a buffer (25 MM Tris-HCl (pH 7.4), 10 mM MgCl2, 1 mM EDTA, 5 μg/ml p-APMSF) and stored at −80° C. until use.
(b) ^125I-BH-Substance P Binding to the Prepared Membrane
Cell membranes (6 μg/ml) were incubated with ^125I-BH-Substance P (0.1 nM) with or without the extracted compounds in 0.25 ml of a medium (50 mM Tris-HCl (pH 7.4), 5 mM MnCl2, 20 μg/ml chymrostatin, 40 μg/ml bacitracin, 4 μg/ml leupeptin, 5 μg/ml p-APMSF, 200 μg/ml BSA) at 22° C. for 90 min. At the end of the incubation period, the contents were quickly filtered through a Blue Mat 11740 filter (pretreated with 0.1% polyethylenimine for 3 hours prior to use) by using SKATRON Cell Harvester. The filter was then washed with a washing buffer (50 mM Tris-HCl (pH 7.4), 5 mM MnCl2) . The radioactivity was counted by using an auto gamma counter (Packard RIASTAR 5420A). All data presented are specific binding defined as that displaceable by 3 μM unlabeled Substance P.

Row | inhibition at 1 mg/kg | SMILES
1 | > 80% | O=C(c1cc(C(F)(F)F)cc(C(F)(F)F)c1)N1CCN(CC#CCN2CCOCC2)C[C@H]1Cc1ccc2ccccc2c1 [Example 35, (2R)-1-[3,5-bis(trifluoromethyl)benzoyl]-4-(4-morpholino-2-butynyl)-2-(2-naphthylmethyl) piperazine dihydrochloride]
2 | > 80% | O=C(c1cc(C(F)(F)F)cc(C(F)(F)F)c1)N1CCN(CCCCN2CCOCC2)C[C@H]1Cc1c[nH]c2ccccc12 [Example 73, (2R)-1-[3,5-bis(trifluoromethyl)benzoyl]-2-(1H-indol-3-ylmethyl)-4-(4-morpholinobutyl) piperazine dihydrochloride]
3 | > 80% | O=C(c1cc(C(F)(F)F)cc(C(F)(F)F)c1)N1CCN(CCNN2CCOCC2)C[C@H]1Cc1ccc2ccccc2c1 [82-(8), (2R)-1-[3,5-Bis(trifluoromethyl)benzoyl]-2-(2-naphthylmethyl)-4-(N-morpholino-2-aminoethyl) piperazine dihydrochloride]
4 | > 80% | Cc1ccc(C[C@@H]2CN(Cc3cn(C)cn3)CCN2C(=O)c2cc(C(F)(F)F)cc(C(F)(F)F)c2)cc1C [52-(1), (2R)-1-[3,5-Bis(trifluoromethyl)benzoyl]-2-(3,4-dimethylbenzyl)-4-[(1-methyl-1H-imidazol-4-yl)methyl]piperazine dihydrochloride]
5 | > 80% | Cc1ccc(C[C@@H]2CN(C/C=C/CNCc3cccnc3)CCN2C(=O)c2cc(C(F)(F)F)cc(C(F)(F)F)c2)cc1C [82-(5), (2R)-1-[3,5-Bis(trifluoromethyl)benzoyl]-2-(3,4-dimethylbenzyl)-4-[(E)-N-(3-pyridylmethyl)-4-amino-2-butenyl]piperazine trihydrochloride]
6 | > 80% | O=C(c1cc(C(F)(F)F)cc(C(F)(F)F)c1)N1CCN(CCCN2CCSCC2)C[C@H]1Cc1ccc(Cl)c(Cl)c1 [Example 44-(4), (2R)-1-[3,5-Bis(trifluoromethyl)benzoyl]-2-(3,4-dichlorobenzyl) -4-(3-thiomorpholinopropyl) piperazine dihydrochloride]

test system: not given; experiment: not given; conditions: not given

Row | melting point | SMILES
7 | 195 °C (dec.) | Cl.O=C(CN1CCN(C(=O)c2cc(C(F)(F)F)cc(C(F)(F)F)c2)[C@H](Cc2c[nH]c3ccccc23)C1)c1cccc(F)c1
8 | 140 to 150 °C | Cc1ccc(C[C@@H]2CN(CC#Cc3cccnc3)CCN2C(=O)c2cc(C(F)(F)F)cc(C(F)(F)F)c2)cc1C.Cl.Cl
9 | 270 °C (dec.) | Cl.O=C(CN1CCN(C(=O)c2cc(C(F)(F)F)cc(C(F)(F)F)c2)[C@H](Cc2c[nH]c3ccccc23)C1)N1CCN(C2CCCC2)CC1
10 | 150 °C (dec.) | Cl.Cl.O=C(c1cc(C(F)(F)F)cc(C(F)(F)F)c1)N1CCN(CCCN2CC3CCC(CC3)C2)C[C@H]1Cc1ccc(Cl)c(Cl)c1
11 | 145 to 146 °C | O=C(c1cc(C(F)(F)F)cc(C(F)(F)F)c1)N1CCN(CCCC2(c3ccc(F)cc3)OCCO2)C[C@H]1Cc1c[nH]c2ccccc12 [Example 38, (2R)-4-[4,4-ethylenedioxy-4-(4-fluorophenyl)butyl]-1-[3,5-bis (trifluoromethyl)benzoyl]-2-(1H-indol-3-ylmethyl) piperazine]
12 | 175 to 190 °C | Cc1ccc(C[C@@H]2CN(CC#CCN3CCN(C4CCCCC4)CC3)CCN2C(=O)c2cc(C(F)(F)F)cc(C(F)(F)F)c2)cc1C.Cl.Cl.Cl
13 | 183 °C (dec.) | Cl.O=C(CN1CCN(C(=O)c2cc(C(F)(F)F)cc(C(F)(F)F)c2)[C@H](Cc2c[nH]c3ccccc23)C1)N1CCN(c2ccc(F)cc2)CC1
14 | 140 to 155 °C | COCC1COCCN1CC#CCN1CCN(C(=O)c2cc(C(F)(F)F)cc(C(F)(F)F)c2)[C@H](Cc2ccc(C)c(C)c2)C1.Cl.Cl (some centres unmarked)
15 | 186 to 187.5 °C | CC(=O)c1cccc(C(=O)N2CCN(C(=O)c3cc(C(F)(F)F)cc(C(F)(F)F)c3)[C@H](Cc3c[nH]c4ccccc34)C2)c1 [Example 16-(1), (2R)-4-(3-Acetylbenzoyl)-1-[3,5-bis(trifluoromethyl)benzoyl]-2-(1H-indol-3-ylmethyl)piperazine]
16 | 191 °C (dec.) | Cl.Cl.O=C(c1cc(C(F)(F)F)cc(C(F)(F)F)c1)N1CCN(CC#CCN2CCSCC2)C[C@H]1Cc1cccc2ccccc12
17 | 162 to 170 °C | Cc1ccc(C[C@@H]2CN(CC#CCN3CCSCC3)CCN2C(=O)c2cc(C(F)(F)F)cc(C(F)(F)F)c2)cc1C.Cl.Cl
18 | > 230 °C | Cc1ccc(C[C@@H]2CN(C/C=C/CN3CCSCC3)CCN2C(=O)c2cc(C(F)(F)F)cc(C(F)(F)F)c2)cc1C.Cl.Cl
19 | 265 °C (dec.) | Cl.Cl.O=C(c1cc(C(F)(F)F)cc(C(F)(F)F)c1)N1CCN(CCCN2CCOCC2)C[C@H]1Cc1c[nH]c2ccccc12
20 | 170 to 176 °C | Cl.Cl.O=C(c1cc(C(F)(F)F)cc(C(F)(F)F)c1)N1CCN(CCN2CCOCC2)C[C@H]1Cc1c[nH]c2ccccc12
21 | 203 °C (dec.) | Cc1ccc(C(=O)CN2CCN(C(=O)c3cc(C(F)(F)F)cc(C(F)(F)F)c3)[C@H](Cc3c[nH]c4ccccc34)C2)cc1.Cl
22 | 163 to 165 °C | Cc1ccc(C[C@@H]2CN(CCCc3cnn(C)c3)CCN2C(=O)c2cc(C(F)(F)F)cc(C(F)(F)F)c2)cc1C.Cl

Row | melting point | SMILES
23 | 250 °C (dec.) | Cl.Cl.Cl.O=C(c1cc(C(F)(F)F)cc(C(F)(F)F)c1)N1CCN(CCCN2CCN(C3CCCCC3)CC2)C[C@H]1Cc1c[nH]c2ccccc12
24 | 185 °C (dec.) | CN(C)c1ccc(C(=O)CN2CCN(C(=O)c3cc(C(F)(F)F)cc(C(F)(F)F)c3)[C@H](Cc3c[nH]c4ccccc34)C2)cc1 [Example 8, (2R)-1-[3,5-bis (trifluoromethyl)benzoyl]-4-(4-dimethylaminophenylcarbonylmethyl)-2-(1H-indol-3-ylmethyl]piperazine]
25 | 165 to 169 °C | Cl.Cl.O=C(c1cc(C(F)(F)F)cc(C(F)(F)F)c1)N1CCN(CC#CCN2CCOCC2)C[C@H]1Cc1c[nH]c2ccccc12
26 | 152 to 156 °C | Cl.Cl.O=C(c1cc(C(F)(F)F)cc(C(F)(F)F)c1)N1CCN(CC#CCN2CCSCC2)C[C@H]1Cc1ccc2ccccc2c1
27 | 173 °C (dec.) | Cl.Cl.O=C(c1cc(C(F)(F)F)cc(C(F)(F)F)c1)N1CCN(CC#CCN2CCSCC2)C[C@H]1Cc1ccc(C(F)(F)F)cc1
28 | 175 to 180 °C | Cc1ccc(C[C@@H]2CN(CC#CCN3CCOC(CF)C3)CCN2C(=O)c2cc(C(F)(F)F)cc(C(F)(F)F)c2)cc1C.Cl.Cl (some centres unmarked)
29 | 166 °C (dec.) | Cc1ccc(C(=O)CN2CCN(C(=O)c3cc(C(F)(F)F)cc(C(F)(F)F)c3)[C@H](Cc3c[nH]c4ccccc34)C2)cc1C.Cl
30 | > 230 °C | Cc1ccc(C[C@@H]2CN(C/C=C/CN3CCOCC3(C)C)CCN2C(=O)c2cc(C(F)(F)F)cc(C(F)(F)F)c2)cc1C.Cl.Cl
31 | 195 to 197 °C | COC[C@@H]1CCCN1CC#CCN1CCN(C(=O)c2cc(C(F)(F)F)cc(C(F)(F)F)c2)[C@H](Cc2ccc(C)c(C)c2)C1.Cl.Cl
32 | 140 °C (dec.) | Cc1ccc(C[C@@H]2CN(Cc3ccc([N+](=O)[O-])cc3)CCN2C(=O)c2cc(C(F)(F)F)cc(C(F)(F)F)c2)cc1C.Cl.Cl
33 | 171 °C (dec.) | Cl.O=C(CN1CCN(C(=O)c2cc(C(F)(F)F)cc(C(F)(F)F)c2)[C@H](Cc2c[nH]c3ccccc23)C1)c1ccc(F)c(F)c1
34 | 190 to 192 °C | CC(=O)c1ccccc1C(=O)N1CCN(C(=O)c2cc(C(F)(F)F)cc(C(F)(F)F)c2)[C@H](Cc2c[nH]c3ccccc23)C1 [Example 16-(2), (2R)-4-(2-Acetylbenzoyl)-1-[3,5-bis(trifluoromethyl)benzoyl]-2-(1H-indol-3-ylmethyl)piperazine]
35 | > 230 °C | Cl.Cl.O=C(c1cc(C(F)(F)F)cc(C(F)(F)F)c1)N1CCN(C/C=C/CN2CCSCC2)C[C@H]1Cc1ccc2ccccc2c1
36 | > 200 °C | Cl.Cl.Cl.O=C(c1cc(C(F)(F)F)cc(C(F)(F)F)c1)N1CCN(CCCN2CCC(N3CCCCC3)CC2)C[C@H]1Cc1ccc(Cl)c(Cl)c1
37 | > 200 °C | Cl.Cl.O=C(c1cc(C(F)(F)F)cc(C(F)(F)F)c1)N1CCN(CCCN2CC=CCC2)C[C@H]1Cc1c[nH]c2ccccc12
38 | 163 to 168 °C | Cc1ccc(C[C@@H]2CN(CCCc3cccnc3)CCN2C(=O)c2cc(C(F)(F)F)cc(C(F)(F)F)c2)cc1C.Cl.Cl
